Experimental data taken from patent US6344457B1, “Amino acid derivatives inhibiting extracellular matrix metalloproteinase and TNF alpha release” (Chiesi Farmaceutici S.p.A., priority 1997, dated 2002).
Where two headings read alike, the source gives them in different places.

Columns and labels:
[1] = biological target: stromelysine of human origin (Homo sapiens, UniProt P08254); assay: Activity on stromelysine; type: biochemical; conditions: radiomarked transferrin, 37° C., 16 hours; read-out: C150 (nM) stromelysine
stromelysine of human origin, sequence (P08254 100-477): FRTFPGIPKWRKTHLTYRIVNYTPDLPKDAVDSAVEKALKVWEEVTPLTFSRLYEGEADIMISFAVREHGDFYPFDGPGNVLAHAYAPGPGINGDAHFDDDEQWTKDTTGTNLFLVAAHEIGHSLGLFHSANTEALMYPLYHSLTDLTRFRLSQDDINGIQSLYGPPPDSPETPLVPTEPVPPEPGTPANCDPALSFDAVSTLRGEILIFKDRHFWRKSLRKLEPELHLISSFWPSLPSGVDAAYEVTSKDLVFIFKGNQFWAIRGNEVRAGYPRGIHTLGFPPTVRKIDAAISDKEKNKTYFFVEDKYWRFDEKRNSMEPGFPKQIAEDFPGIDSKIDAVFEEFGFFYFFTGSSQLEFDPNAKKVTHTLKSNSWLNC
Procedure: (§1) The stromelysine was incubated at 37° C. for 16 hours with radiomarked transferrin, and its activity was determined by the release of the soluble peptides produced by the enzymatic breakdown of the transferrin. The inhibiting concentration C150 for each compound was determined by measurement of the activity of the enzyme in the presence of the inhibitor at a concentration ranging between 10^−7 and 10^−12 M (the inhibitor is dissolved in the same manner as for collagenase).

[2] = biological target: T1, collagenase of the human monocytic stock U937 (Homo sapiens, UniProt P03956); assay: Activity on collagenase; type: biochemical; conditions: radiomarked collagen, 27° C., 16 hours; read-out: C150 (nM) collagenase
T1 construct: the collagenase of the human monocytic stock U937; endogenous in cells; host or cells: U937 human monocytic cell line
T1 sequence (P03956 100-469): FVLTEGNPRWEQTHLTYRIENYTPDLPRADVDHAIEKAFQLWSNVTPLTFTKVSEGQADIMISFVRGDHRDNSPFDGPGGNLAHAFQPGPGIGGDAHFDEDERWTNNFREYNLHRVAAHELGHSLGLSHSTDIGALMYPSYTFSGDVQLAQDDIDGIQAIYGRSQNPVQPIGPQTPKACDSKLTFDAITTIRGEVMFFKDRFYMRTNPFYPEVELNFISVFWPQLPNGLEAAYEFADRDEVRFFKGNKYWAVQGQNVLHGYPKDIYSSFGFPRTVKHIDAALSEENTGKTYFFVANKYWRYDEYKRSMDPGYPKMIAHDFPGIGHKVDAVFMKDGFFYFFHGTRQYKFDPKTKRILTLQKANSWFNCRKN
Procedure: The collagenase was incubated at 27° C. for 16 hours with radiomarked collagen, and its activity was determined by the release of soluble peptides produced by the enzymatic breakdown of the collagen. The inhibiting concentration C150 for each compound was determined by measurement of the activity of the enzyme in the presence of the inhibitor at a concentration ranging between 10^−7 and 10^−12 M (the inhibitor is dissolved at a concentration of 10^−2 M in DMSO, then diluted successively by tenths in the buffer: Tris, HCl 150 mM, pH 7.5; NaCl 0.15 M; CaCl2 10 mM).

[3] = biological target: 92 kDa gelatinase of human origin (Homo sapiens, UniProt P14780); assay: Activity on gelatinase, radiomarked gelatin; type: biochemical; conditions: for IC50: test performed with radiomarked gelatin, read-out: C150 (nM) gelatinase 92 kDa*; for gelatinase 92 kDa* (in %): radiomarked gelatin, concentration not given
92 kDa gelatinase of human origin, sequence (P14780 94-707): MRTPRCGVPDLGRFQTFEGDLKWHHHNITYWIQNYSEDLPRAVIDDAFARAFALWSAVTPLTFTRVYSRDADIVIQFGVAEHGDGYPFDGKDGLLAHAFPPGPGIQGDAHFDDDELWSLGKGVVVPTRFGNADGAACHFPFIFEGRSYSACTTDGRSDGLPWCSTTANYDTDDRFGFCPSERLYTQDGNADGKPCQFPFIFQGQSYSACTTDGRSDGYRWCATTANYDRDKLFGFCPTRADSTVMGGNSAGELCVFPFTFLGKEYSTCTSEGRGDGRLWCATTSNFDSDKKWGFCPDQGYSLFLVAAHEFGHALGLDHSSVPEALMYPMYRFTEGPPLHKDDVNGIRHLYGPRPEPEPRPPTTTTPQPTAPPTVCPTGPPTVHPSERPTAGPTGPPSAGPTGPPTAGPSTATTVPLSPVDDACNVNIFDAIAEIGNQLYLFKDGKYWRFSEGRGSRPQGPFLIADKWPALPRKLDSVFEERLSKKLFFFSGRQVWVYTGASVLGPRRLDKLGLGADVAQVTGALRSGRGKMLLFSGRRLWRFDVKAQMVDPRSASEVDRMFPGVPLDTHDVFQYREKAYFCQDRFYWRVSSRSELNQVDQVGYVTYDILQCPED
Procedure: The anti-gelatinase activity of the compounds according to the invention also was determined on 92 kDa or 72 kDa gelatinase of human origin, in accordance with the operating mode described by Harris, E. D., Krane, S. M.; (Biochem. Biophys. Acta, 258, 566-576, 1972).
as §1, with “gelatinase” for “stromelysine”, “gelatin,” for “transferrin,”, “gelatin.” for “transferrin.”

[4] = biological target: T2, 72 kDa gelatinase of human origin (Homo sapiens, UniProt P08253); assay: Activity on gelatinase, synthetic substrate; type: biochemical; conditions: performed on synthetic substrate; read-out: C150 (nM) gelatinase 72 kDa**
T2 sequence (P08253 110-660): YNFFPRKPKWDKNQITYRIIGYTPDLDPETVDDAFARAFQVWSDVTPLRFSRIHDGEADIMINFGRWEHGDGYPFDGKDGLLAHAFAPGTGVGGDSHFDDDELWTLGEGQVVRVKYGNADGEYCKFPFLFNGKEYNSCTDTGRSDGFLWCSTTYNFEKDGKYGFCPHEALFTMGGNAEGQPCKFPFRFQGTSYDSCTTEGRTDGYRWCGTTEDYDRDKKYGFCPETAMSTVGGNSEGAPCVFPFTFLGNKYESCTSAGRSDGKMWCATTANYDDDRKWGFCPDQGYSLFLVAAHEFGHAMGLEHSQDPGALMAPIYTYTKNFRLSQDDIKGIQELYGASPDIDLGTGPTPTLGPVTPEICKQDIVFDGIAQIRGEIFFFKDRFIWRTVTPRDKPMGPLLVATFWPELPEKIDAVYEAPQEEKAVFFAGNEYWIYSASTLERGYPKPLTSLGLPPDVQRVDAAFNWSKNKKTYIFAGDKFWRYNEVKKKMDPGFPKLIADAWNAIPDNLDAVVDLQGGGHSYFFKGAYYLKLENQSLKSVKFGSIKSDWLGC
Procedure: The anti-gelatinase activity of the compounds according to the invention was determined on 72 kDa gelatinase of human origin, in accordance with the operating mode described by Knight, C. G., Willenbrock, F., Murphy, G. (FEBS Letters, 296 (3), 263-266, 1992).
The gelatinase was incubated at 37° C. for 10 minutes, and its activity was determined by the increase in fluorescence of the product of Mca-Pro-Leu breakdown of the Mca-Pro-Leu-Gly-Leu-Dpa-Ala-Arg-NH2 synthetic substrate.
The inhibiting concentration C150 for each compound was determined by measurement of the activity of the enzyme in the presence of the inhibitor at a concentration ranging between 10^−7 and 10^−12 M (the inhibitor is dissolved at a concentration of 10^−2 M in DMSO, then diluted successively by tenths in DMSO to 10^−4 M, then in the buffer: Tris, HCl 50 mM+0.05% Brij 35; CaCl2 10 mM; NaCl 0.15 M).

[5] = tested on: release of TNF from the peritoneal macrophages of mice stimulated by LPS; assay: Inhibition of the production of TNF in vitro; type: cell-based; conditions: mouse peritoneal macrophages, LPS 100 ng/ml, read-out: C150 (μM) TNF
Procedure: The capacity of the compounds according to this invention to inhibit the release of TNF was determined from the peritoneal macrophages of mice stimulated by LPS (Lang, F., Robert, […], Petit, J. Y., J. Pharmacol. Exp. Ther., 275, 171-176, 1995). After an adhesion phase of 2 hours, the cells were treated for 1 hour with the compound to be tested at concentrations ranging between 10^-6 to 10^-9 M (the inhibitor is dissolved in DMSO at 10^-2 M, then at 5.10^-3 M in RPMI 1640 with 5% SVF, then diluted successively by tenths in the same medium), then stimulated by the addition of LPS (100 ng/ml in final concentration). Three hours later, the biological activity of the TNF in the supernatants was determined by a cytotoxicity test using the murine stock L929 in accordance with the operating procedure described by Band, G., Lin, […]., Evans, C. H. (Bioch. Biophys. Acta, 1134, 309-318, 1982). The pg/ml concentration of the TNF of the samples was determined from a murine αTNF standard curve, thus making it possible to define the inhibiting concentration […] of the compounds studied.

Molecule	IC50 [1]	IC50 [2]	IC50 [3]	IC50 [4]	IC50 ([5]; Peritoneal macrophage)	gelatinase 92 kDa* (in %) [3]	IC50 [5]
CNC(=O)[C@@H](NC(=O)[C@](O)(CC(C)C)[C@H](C)C(=O)NO)C(C)(C)C [Example 2, N-2-(S)[1(S)(hydroxycarbamoyl)ethyl]-2(S) hydroxy-4-methylpentanoyl 3-methyl-(S) valine N-methylamide]	60 nM	18 nM	16 nM	3.4 nM	–	–	–
COc1ccc(C[C@H](NC(=O)[C@](O)(CC(C)C)[C@H](C)C(=O)NO)C(=O)NCc2ccccc2)cc1 [Example 5, N-2(S)[-1-(S)(hydroxycarbamoyl)-ethyl]-2(S) hydroxy-4-methyl 2entanol O methyl-L-tyrosine phenylmethylamide]	11 nM	12 nM	0.5 nM	2.4 nM	–	–	–
CNC(=O)[C@H](Cc1ccc(OC)cc1)NC(=O)[C@](O)(C(C)C)[C@H](C)C(=O)NO [Example 7, N-2(S) [-1-(S) hydroxycarbamoyl 1(S)ethyl] 2(S) hydroxy-3 methyl butanoyl O-methyltyrosine N-methylamide]	–	30 nM	17 nM	18 nM	2 µM	–	–
CCC[C@H](C(=O)NO)[C@@](O)(CC(C)C)C(=O)N[C@@H](Cc1ccc(Cl)cc1)C(=O)NC [Example 17, N-2(S) hydroxy 3(S) hydroxycarbamoyl 2(S) 1(2-methyl) propyl hexanoyl L-4-chlorophenylalanine N-methyl amide]	–	–	1.6 nM	1.6 nM	0.27 µM	–	–
CC(C)C[C@@](O)(C(=O)N[C@@H](Cc1ccc(Cl)c(Cl)c1)C(=O)NCCOCCO)[C@H](C)C(=O)NO [Example 19, N-2(S)[1(S)hydroxycarbamoyl-1 ethyl]-2 (S) hydroxy 4-methylpentanoyl L-3,4 dichlorophenylalanine N-hydroxyethyloxyethylamide]	–	7 nM	0.001 nM	0.7 nM	0.5 µM	–	–
CNC(=O)[C@H](Cc1ccc(Cl)cc1Cl)NC(=O)[C@](O)(CC(C)C)[C@H](C)C(=O)NO [Example 20, N-2(S)[1(S)hydroxycarbamoyl-1 ethyl]-2 (S) hydroxy 4-methylpentanoyl L-2,4-dichlorophenylalanine N-methylamide]	–	3.7 nM	0.2 nM	1.6 nM	1 µM	–	–
CSCCNC(=O)[C@H](Cc1ccc(Cl)c(Cl)c1)NC(=O)[C@](O)(CC(C)C)[C@H](C)C(=O)NO [Example 21, N-2(S)[1(S)hydroxycarbamoyl-1 ethyl]-2(S) hydroxy-4-methylpentanoyl L-3,4-dichlorophenylalanine N-(2-methylthio-1-ethyl) amide]	–	5 nM	–	–	0.4 µM	83%	–
COCCOCCNC(=O)[C@H](Cc1ccc(Cl)c(Cl)c1)NC(=O)[C@](O)(CC(C)C)[C@H](C)C(=O)NO [Example 23, N-2(S) [1(S) hydroxycarbamoyl-1 ethyl]-2(S) hydroxy 4-methyl pentanoyl L-3,4-dichlorophenylalanine N-(2-(2-methoxyethoxy)1-ethyl)amide]	–	–	–	0.14 nM	0.37 µM	60%	–
CNC(=O)[C@H](Cc1ccc(OC)cc1)NC(=O)[C@](O)(CC(C)C)[C@H](OC)C(=O)NO [Example 31, N-2(S)[(S) hydroxycarbamoyl(S)methoxy]methyl 2(S) hydroxy-4 methyl pentanoyl O-methyl tyrosine N-methylamide]	90 nM	120 nM	140 nM	18 nM	–	–	–
C[C@H](C(=O)NO)[C@@](O)(CCCc1ccccc1)C(=O)N[C@@H](CC1CCCCC1)C(=O)NCCc1ccccc1 [Example 32, N-2-(S)[1(S)(hydroxycarbamoyl)ethyl]2(S) hydroxy 5-phenyl pentanoyl L-3-cyclohexylalanine 2 phenylethylamide]	–	–	1.9 nM	0.8 nM	> 1 µM	–	–
CNC(=O)[C@H](Cc1ccc(Cl)c(Cl)c1)NC(=O)[C@](O)(CCCc1ccccc1)[C@H](C)C(=O)NO [Example 33, N-2-(S)[1(S)(hydroxycarbamoyl)ethyl]2(S) hydroxy 5-phenylpentanoyl L-3,4-dichlorophenylalanine N-methylamide]	–	225 nM	–	0.01 nM	0.58 µM	86%	–
CC(C)C[C@@](O)(C(=O)N[C@@H](Cc1ccc(Cl)c(Cl)c1)C(=O)NCCN1CCOCC1)[C@H](C)C(=O)NO [Example 35b]	–	4 nM	1.1 nM	–	0.3 µM	–	–
CNC(=O)[C@H](Cc1ccc(OC)cc1)NC(=O)[C@](O)(CC(C)C)[C@H](C)S [Example 36, N-2(R)-[(1-thioethyl)] 2(R) hydroxy 4-methyl pentanoyl-o-methyl-L-tyrosine methylamide]	–	500 nM	23 nM	–	3 µM	–	–
CNC(=O)[C@H](Cc1ccc(Cl)c(Cl)c1)NC(=O)[C@@](O)(CS)CC(C)C [Example 37]	–	> 1000 nM	70 nM	–	2 µM	–	–
N-2(S)[1(S)-hydroxycarbamoyl-1 (S) ethyl]-2 (S)-hydroxy-4-methyl pentanoyl L-(3,4)-dichlorophenylalanine N-(2-(4-morpholino)1-ethyl) amide [Example 35a]	–	6 nM	0.38 nM	–	–	–	0.86 µM
